Marks after values point to notes of the source that are not given here.
Assays:
advanced solid tumors = test: Clinical efficacy: tumor response per RECIST 1.1; format: in vivo, human
Protocol: The endpoints for efficacy, including the objective response rate (ORR), disease control rate (DCR), progression-free survival (PFS), and time to progression (TTP), were assessed per RECIST 1.1. Tumor response was evaluated every two treatment cycles until disease progression, start of a new antitumor treatment, consent withdrawal, loss to follow-up, or study termination for other reasons.

pSMAD3 = test system: pSMAD3; set-up: method as in preclinical studies (reference not given); conditions: mouse H22 models, ref preclinical studies (reference not given), cited from earlier work
[1] = test system: TGF-β-induced SMAD3 phosphorylation; set-up: method as in doi:10.1158/1538-7445.AM2019-3072; conditions: preclinical; cited from earlier work
[2] = set-up: method as in doi:10.1158/1538-7445.AM2019-3072; conditions: preclinical; cited from earlier work
[3] = test system: recurrent/metastatic nasopharyngeal carcinoma (R/M NPC); set-up: method as in doi:10.1200/JCO.2023.41.16_suppl.6026; conditions: ongoing phase Ib/II study; cited from earlier work
[4] = 5 mg BID 14d-on/14d-off (N = 4)
[5] = 10 mg BID 14d-on/14d-off (N = 3)
[6] = 20 mg BID 14d-on/14d-off (N = 4)
[7] = 30 mg BID 14d-on/14d-off (N = 7)
[8] = 40 mg BID 14d-on/14d-off (N = 4)
[9] = 50 mg BID 14d-on/14d-off (N = 4)
[10] = 65 mg BID 14d-on/14d-off (N = 6)
[11] = 85 mg BID 14d-on/14d-off (N = 12)

Structure (SMILES): Cc1cccc(-c2nn3c(c2-c2ccc4ncnn4c2/C=C/C(N)=O)CCC3)n1 [GFH018]
- BOR: CR (advanced solid tumors; [4]): 0 n (%)
- BOR: NA (no postbaseline assessments after the start date) (advanced solid tumors; [4]): 2 (50.0%) n (%)
- BOR: NE (not estimable) (advanced solid tumors; [4]): 0 n (%)
- BOR: Non-CR/Non-PD (advanced solid tumors; [4]): 0 n (%)
- BOR: PD (advanced solid tumors; [4]): 2 (50.0%) n (%)
- BOR: PR (advanced solid tumors; [4]): 0 n (%)
- BOR: SD (advanced solid tumors; [4]): 0 n (%)
- DCR (90%CI) (advanced solid tumors; [4]): 0 n (%)
- ORR (90%CI) (advanced solid tumors; [4]): 0 n (%)
- BOR: CR (advanced solid tumors; [5]): 0 n (%)
- BOR: NA (no postbaseline assessments after the start date) (advanced solid tumors; [5]): 0 n (%)
- BOR: NE (not estimable) (advanced solid tumors; [5]): 0 n (%)
- BOR: Non-CR/Non-PD (advanced solid tumors; [5]): 0 n (%)
- BOR: PD (advanced solid tumors; [5]): 2 (66.7%) n (%)
- BOR: PR (advanced solid tumors; [5]): 0 n (%)
- BOR: SD (advanced solid tumors; [5]): 1 (33.3%) n (%)
- DCR (90%CI) (advanced solid tumors; [5]): 1 (33.3%) (0.84%, 90.57%) n (%)
- ORR (90%CI) (advanced solid tumors; [5]): 0 n (%)
- BOR: CR (advanced solid tumors; [6]): 0 n (%)
- BOR: NA (no postbaseline assessments after the start date) (advanced solid tumors; [6]): 1 (25.0%) n (%)
- BOR: Non-CR/Non-PD (advanced solid tumors; [6]): 0 n (%)
- BOR: PD (advanced solid tumors; [6]): 1 (25.0%) n (%)
- BOR: PR (advanced solid tumors; [6]): 0 n (%)
- BOR: SD (advanced solid tumors; [6]): 1 (25.0%) n (%)
- DCR (90%CI) (advanced solid tumors; [6]): 1 (25.0%) (0.63%, 80.59%) n (%)
- ORR (90%CI) (advanced solid tumors; [6]): 0 n (%)
- BOR: NE (not estimable) (advanced solid tumors; 20 mg BID 14d-on/14d-off (N = 4), SD of insufficient duration): 1 (25.0%)^e n (%)
- BOR: CR (advanced solid tumors; [7]): 0 n (%)
- BOR: NA (no postbaseline assessments after the start date) (advanced solid tumors; [7]): 3 (42.9%) n (%)
- BOR: NE (not estimable) (advanced solid tumors; [7]): 0 n (%)
- BOR: Non-CR/Non-PD (advanced solid tumors; [7]): 0 n (%)
- BOR: PD (advanced solid tumors; [7]): 3 (42.9%) n (%)
- BOR: PR (advanced solid tumors; [7]): 0 n (%)
- BOR: SD (advanced solid tumors; [7]): 1 (14.3%) n (%)
- DCR (90%CI) (advanced solid tumors; [7]): 1 (14.3%) (0.36%, 57.87%) n (%)
- ORR (90%CI) (advanced solid tumors; [7]): 0 n (%)
- BOR: CR (advanced solid tumors; [8]): 0 n (%)
- BOR: NA (no postbaseline assessments after the start date) (advanced solid tumors; [8]): 1 (25.0%) n (%)
- BOR: NE (not estimable) (advanced solid tumors; [8]): 0 n (%)
- BOR: Non-CR/Non-PD (advanced solid tumors; [8]): 0 n (%)
- BOR: PD (advanced solid tumors; [8]): 3 (75.0%) n (%)
- BOR: PR (advanced solid tumors; [8]): 0 n (%)
- BOR: SD (advanced solid tumors; [8]): 0 n (%)
- DCR (90%CI) (advanced solid tumors; [8]): 0 n (%)
- ORR (90%CI) (advanced solid tumors; [8]): 0 n (%)
- BOR: CR (advanced solid tumors; [9]): 0 n (%)
- BOR: NA (no postbaseline assessments after the start date) (advanced solid tumors; [9]): 2 (50.0%) n (%)
- BOR: NE (not estimable) (advanced solid tumors; [9]): 0 n (%)
- BOR: Non-CR/Non-PD (advanced solid tumors; [9]): 0 n (%)
- BOR: PD (advanced solid tumors; [9]): 1 (25.0%) n (%)
- BOR: PR (advanced solid tumors; [9]): 0 n (%)
- BOR: SD (advanced solid tumors; [9]): 1 (25.0%) n (%)
- DCR (90%CI) (advanced solid tumors; [9]): 1 (25.0%) (0.63%, 80.59%) n (%)
- ORR (90%CI) (advanced solid tumors; [9]): 0 n (%)
- BOR: CR (advanced solid tumors; [10]): 0 n (%)
- BOR: NA (no postbaseline assessments after the start date) (advanced solid tumors; [10]): 0 n (%)
- BOR: NE (not estimable) (advanced solid tumors; [10]): 0 n (%)
- BOR: Non-CR/Non-PD (advanced solid tumors; [10]): 0 n (%)
- BOR: PD (advanced solid tumors; [10]): 5 (83.3%) n (%)
- BOR: PR (advanced solid tumors; [10]): 0 n (%)
- BOR: SD (advanced solid tumors; [10]): 1 (16.7%) n (%)
- DCR (90%CI) (advanced solid tumors; [10]): 1 (16.7%) (0.42%, 64.12%) n (%)
- ORR (90%CI) (advanced solid tumors; [10]): 0 n (%)
- BOR: CR (advanced solid tumors; 85 mg BID 7d-on/7d-off (N = 6)): 0 n (%)
- BOR: NA (no postbaseline assessments after the start date) (advanced solid tumors; 85 mg BID 7d-on/7d-off (N = 6)): 3 (50.0%) n (%)
- BOR: NE (not estimable) (advanced solid tumors; 85 mg BID 7d-on/7d-off (N = 6)): 0 n (%)
- BOR: Non-CR/Non-PD (advanced solid tumors; 85 mg BID 7d-on/7d-off (N = 6)): 0 n (%)
- BOR: PD (advanced solid tumors; 85 mg BID 7d-on/7d-off (N = 6)): 2 (33.3%) n (%)
- BOR: PR (advanced solid tumors; 85 mg BID 7d-on/7d-off (N = 6)): 0 n (%)
- BOR: SD (advanced solid tumors; 85 mg BID 7d-on/7d-off (N = 6)): 1 (16.7%) n (%)
- DCR (90%CI) (advanced solid tumors; 85 mg BID 7d-on/7d-off (N = 6)): 1 (16.7%) (0.42%, 64.12%) n (%)
- ORR (90%CI) (advanced solid tumors; 85 mg BID 7d-on/7d-off (N = 6)): 0 n (%)
- BOR: CR (advanced solid tumors; [11]): 0 n (%)
- BOR: NA (no postbaseline assessments after the start date) (advanced solid tumors; [11]): 5 (41.7%) n (%)
- BOR: NE (not estimable) (advanced solid tumors; [11]): 0 n (%)
- BOR: Non-CR/Non-PD (advanced solid tumors; [11]): 0 n (%)
- BOR: PD (advanced solid tumors; [11]): 4 (33.3%) n (%)
- BOR: PR (advanced solid tumors; [11]): 0 n (%)
- BOR: SD (advanced solid tumors; [11]): 3 (25.0%) n (%)
- DCR (90%CI) (advanced solid tumors; [11]): 3 (25.0%) (5.49%, 57.19%) n (%)
- ORR (90%CI) (advanced solid tumors; [11]): 0 n (%)
- DCR (advanced solid tumors; 85 mg BID, 14 d-on/14 d-off, twelve patients): 25.0%
- median PFS (advanced solid tumors; 85 mg BID, 14 d-on/14 d-off, twelve patients, 90% CI, 0.82–3.75): 1.8 months
- complete response (CR) or partial response (PR) (advanced solid tumors; 50 enrolled patients, 33 with at least one tumor assessment): No complete response (CR) or partial response (PR) was observed
- BOR: CR (advanced solid tumors; Total (N = 50)): 0 n (%)
- BOR: NA (no postbaseline assessments after the start date) (advanced solid tumors; Total (N = 50)): 17 (34.0%) n (%)
- BOR: Non-CR/Non-PD (advanced solid tumors; Total (N = 50)): 0 n (%)
- BOR: PD (advanced solid tumors; Total (N = 50)): 23 (46.0%) n (%)
- BOR: PR (advanced solid tumors; Total (N = 50)): 0 n (%)
- BOR: SD (advanced solid tumors; Total (N = 50)): 9 (18.0%) n (%)
- DCR (90%CI) (advanced solid tumors; Total (N = 50)): 9 (18.0%) (8.58%, 31.44%) n (%)
- ORR (90%CI) (advanced solid tumors; Total (N = 50)): 0 n (%)
- BOR: NE (not estimable) (advanced solid tumors; Total (N = 50), SD of insufficient duration): 1 (2.0%)^e n (%)
- maximum target lesion decrease (advanced solid tumors; one patient with thymic carcinoma, 65 mg BID): 18.4%
- effective concentration (efficacy with approximately 50% inhibition of pSMAD3) (pSMAD3; after the 1-h dose): 125 ng/ml
- inhibition of pSMAD3 at which efficacy was observed (pSMAD3; at 125 ng/ml after the 1-h dose): approximately 50%
- effect on TGF-β-induced SMAD3 phosphorylation [1]: ability to inhibit TGF-β-induced SMAD3 phosphorylation
- effect in combination with anti-PD-1/L1 antibodies [2]: Synergistic effects were observed
- efficacy in combination with toripalimab [3]: promising efficacy was shown
